Assay results from ChEMBL document CHEMBL1201862, “PubChem BioAssay data set” (2004).
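The compound was tested at five concentrations on cells cultured in 96-well plates, with a 48-hour exposure period. GI50 is the concentration that inhibits growth by half.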 Active and inactive are the calls of the source. Rule as the data show it: active = GI50 up to about 1.1 µM and inactive = higher.

Experiments:
Assay in all cases: NCI tumour cell line growth inhibition, 48 h
TK-10 = tested on: TK-10
SW-620 = tested on: SW-620
NCI-H226 = tested on: NCI-H226
DU-145 = tested on: DU-145
HCC 2998 = tested on: HCC 2998
SNB-75 = tested on: SNB-75
SR = tested on: SR
EKVX = tested on: EKVX
HOP-92 = tested on: HOP-92
HCT-116 = tested on: HCT-116
MDA-N = tested on: MDA-N
HT-29 = tested on: HT-29
OVCAR-4 = tested on: OVCAR-4
T47D = tested on: T47D
Malme-3M = tested on: Malme-3M
SF-268 = tested on: SF-268
IGROV-1 = tested on: IGROV-1
MCF7 = tested on: MCF7
OVCAR-8 = tested on: OVCAR-8
PC-3 = tested on: PC-3
HCT-15 = tested on: HCT-15
SK-OV-3 = tested on: SK-OV-3
UO-31 = tested on: UO-31
ACHN = tested on: ACHN
NCI-H460 = tested on: NCI-H460
K562 = tested on: K562
NCI/ADR-RES = tested on: NCI/ADR-RES
UACC-257 = tested on: UACC-257
NCI-H23 = tested on: NCI-H23
OVCAR-3 = tested on: OVCAR-3
SN12C = tested on: SN12C
BT-549 = tested on: BT-549
SNB-19 = tested on: SNB-19
RPMI-8226 = tested on: RPMI-8226
A498 = tested on: A498
MDA-MB-435 = tested on: MDA-MB-435
SK-MEL-5 = tested on: SK-MEL-5
SK-MEL-28 = tested on: SK-MEL-28
MDA-MB-231 = tested on: MDA-MB-231
MOLT-4 = tested on: MOLT-4
UACC-62 = tested on: UACC-62
CCRF-CEM = tested on: CCRF-CEM
M14 = tested on: M14
COLO 205 = tested on: COLO 205
OVCAR-5 = tested on: OVCAR-5
SF-295 = tested on: SF-295
A549 = tested on: A549
HOP-62 = tested on: HOP-62
786-0 = tested on: 786-0
HL-60 = tested on: HL-60
U-251 = tested on: U-251
SF-539 = tested on: SF-539
LOX IMVI = tested on: LOX IMVI
NCI-H522 = tested on: NCI-H522
KM12 = tested on: KM12
Hs-578T = tested on: Hs-578T
SK-MEL-2 = tested on: SK-MEL-2
RXF 393 = tested on: RXF 393

With `CC(=O)OCc1cc(OC(C)=O)c2cc3c(OC(C)=O)cccc3c(OC(C)=O)c2c1` the GI50 (TK-10) was 12.7 µM (inactive), the GI50 (SW-620) was 12.2 µM (inactive) and the GI50 (NCI-H226) was 23.1 µM (inactive). For the same molecule, the GI50 (DU-145) was 16.7 µM (inactive), the GI50 (HCC 2998) was 14.5 µM (inactive) and the GI50 (SNB-75) was 22.3 µM (inactive). The GI50 (SR) was 19.5 µM (inactive), the GI50 (EKVX) was 6.7 µM (inactive) and the GI50 (HOP-92) was 20.4 µM (inactive). The GI50 (HCT-116) was 19.7 µM (inactive), the GI50 (MDA-N) was 17.1 µM (inactive) and the GI50 (HT-29) was 14.8 µM (inactive). For the same molecule, the GI50 (OVCAR-4) was 17.8 µM (inactive), the GI50 (T47D) was 21.7 µM (inactive) and the GI50 (Malme-3M) was 1.64 µM (inactive). The GI50 (SF-268) was 21.2 µM (inactive), the GI50 (IGROV-1) was 14.5 µM (inactive) and the GI50 (MCF7) was 12.8 µM (inactive). The GI50 (OVCAR-8) was 13.3 µM (inactive), the GI50 (PC-3) was 16.5 µM (inactive) and the GI50 (HCT-15) was 5.61 µM. For the same molecule, the GI50 (SK-OV-3) was 18.5 µM (inactive), the GI50 (UO-31) was 17 µM (inactive) and the GI50 (ACHN) was 11.6 µM (inactive). The GI50 (NCI-H460) was 5.65 µM (inactive), the GI50 (K562) was 19.2 µM (inactive) and the GI50 (NCI/ADR-RES) was 17.2 µM (inactive). The GI50 (UACC-257) was 22 µM (inactive), the GI50 (NCI-H23) was 17.1 µM (inactive) and the GI50 (OVCAR-3) was 13.7 µM (inactive). The GI50 (SN12C) was 12.2 µM (inactive), the GI50 (BT-549) was 20.1 µM (inactive) and the GI50 (SNB-19) was 18.3 µM (inactive). The GI50 (RPMI-8226) was 11.2 µM (inactive), the GI50 (A498) was 11.2 µM (inactive) and the GI50 (MDA-MB-435) was 17.7 µM (inactive). The GI50 (SK-MEL-5) was 11.2 µM (inactive), the GI50 (SK-MEL-28) was 23 µM (inactive) and the GI50 (MDA-MB-231) was 17.1 µM (inactive). For the same molecule, the GI50 (MOLT-4) was 15.2 µM (inactive), the GI50 (UACC-62) was 13.3 µM (inactive) and the GI50 (CCRF-CEM) was > 10 µM (inactive). For the same molecule, the GI50 (M14) was 12.5 µM (inactive), the GI50 (COLO 205) was 6.67 µM (inactive) and the GI50 (OVCAR-5) was 18.8 µM (inactive). The GI50 (SF-295) was 13.6 µM (inactive), the GI50 (A549) was 12.5 µM (inactive) and the GI50 (HOP-62) was 16.9 µM (inactive). For the same molecule, the GI50 (786-0) was 13 µM (inactive), the GI50 (HL-60) was 9.51 µM (inactive) and the GI50 (U-251) was 15.6 µM (inactive).

With `COc1ccc2[nH]c3c(O)c(-c4c(C)cc5c([nH]c6ccc(OC)cc65)c4O)c(C)cc3c2c1` the GI50 (TK-10) was 4.45 µM (inactive), the GI50 (SF-539) was 4.86 µM (inactive) and the GI50 (LOX IMVI) was 4.38 µM (inactive). For the same molecule, the GI50 (SW-620) was 4.41 µM (inactive), the GI50 (NCI-H226) was 4.38 µM (inactive) and the GI50 (DU-145) was 4.43 µM (inactive). For the same molecule, the GI50 (HCC 2998) was 3.7 µM (inactive), the GI50 (SNB-75) was 3.85 µM (inactive) and the GI50 (EKVX) was 4.09 µM (inactive). The GI50 (HOP-92) was 4.51 µM (inactive), the GI50 (HCT-116) was 4.22 µM (inactive) and the GI50 (NCI-H522) was 4.93 µM (inactive). The GI50 (OVCAR-4) was 3.88 µM (inactive), the GI50 (T47D) was 9.86 µM (inactive) and the GI50 (SF-268) was 4.48 µM (inactive). The GI50 (IGROV-1) was 4.34 µM (inactive), the GI50 (OVCAR-8) was 4.5 µM (inactive) and the GI50 (PC-3) was 4.27 µM (inactive). For the same molecule, the GI50 (ACHN) was 4.66 µM (inactive), the GI50 (NCI-H460) was 3.98 µM (inactive) and the GI50 (KM12) was 4.24 µM (inactive). For the same molecule, the GI50 (NCI/ADR-RES) was 4.24 µM (inactive), the GI50 (UACC-257) was 4.24 µM (inactive) and the GI50 (OVCAR-3) was 4.35 µM (inactive). For the same molecule, the GI50 (SN12C) was 4.43 µM (inactive), the GI50 (BT-549) was 4.62 µM (inactive) and the GI50 (SNB-19) was 4.69 µM (inactive). The GI50 (Hs-578T) was 6.28 µM (inactive), the GI50 (SK-MEL-28) was 5.55 µM (inactive) and the GI50 (MDA-MB-231) was 5.74 µM (inactive). For the same molecule, the GI50 (M14) was 4.13 µM (inactive), the GI50 (SK-MEL-2) was 5.41 µM (inactive) and the GI50 (RXF 393) was 4.84 µM (inactive). For the same molecule, the GI50 (A549) was 4.05 µM (inactive), the GI50 (HOP-62) was 4.83 µM (inactive) and the GI50 (786-0) was 4.91 µM (inactive). The GI50 (U-251) was 4.31 µM (inactive).
